Experimental data published in paper PMC5804415, “Comparison of ^68Ga-DOTA-Siglec-9 and ^18F-Fluorodeoxyribose-Siglec-9: Inflammation Imaging and Radiation Dosimetry” (Contrast Media & Molecular Imaging, 2017).
Positions of bridges follow the written chain, without caps; N, C: chain ends. Residues, ends and D or L forms follow the SMILES beside them. *: point of attachment. X1 = O=C(CON=C[C@H](O)[C@H](O)[C@H](O)CF)*; AEEA = NCCOCCOCC(=O)O

Experiments:
[1] = Human radiation dosimetry extrapolated from rat PET data (OLINDA/EXM); conditions: mean ± SD
Experimental: Absorbed doses of ^68Ga-DOTA-Siglec-9 and ^18F-FDR-Siglec-9 were calculated with the OLINDA/EXM version 1.0 software (organ level internal dose assessment and exponential modeling; Vanderbilt University, Nashville, TN, USA), which applies the MIRD schema (developed by the Medical Internal Radiation Dose committee of the Society of Nuclear Medicine) for radiation dose calculations in internal exposure. The software includes radionuclide information and selection of human body phantoms. The residence times derived from the rat data were integrated as the area under the time-activity curve. The residence times were converted into corresponding human values by multiplication with a factor to scale the organ and body weights: (WBody,rat/WOrgan,rat)×(WOrgan,human/WBody,human), where WBody,rat and WBody,human are the body weights of rat and human (a 70-kg male), respectively; and WOrgan,rat and WOrgan,human are the organ weights of rat and human (organ weights for a 70 kg male), respectively [14].

[2] = test system: LDLR^−/−ApoB^100/100 atherosclerotic mice; assay: PET/CT imaging of atherosclerotic mice; format: in vivo, mouse; conditions: atherosclerotic LDLR^−/−ApoB^100/100 mice, 10–20 min after injection, mean ± SD, n = 2
Experimental: Six-month-old atherosclerotic low-density lipoprotein receptor-deficient mice (weight, 27 ± 4.1 g; n = 19) expressing only apolipoprotein B100 (LDLR^−/−ApoB^100/100, strain #003000; Jackson Laboratory, Bar Harbor, ME, USA) were fed for 4 months with a Western-type diet. Two-month-old C57BL/6N mice (weight, 24 ± 2.2 g; n = 13) fed with a regular chow served as controls.
A subset of mice (two atherosclerotic, two controls) were injected with 4.7 ± 1.1 MBq of ^18F-FDR-Siglec-9 and imaged with an Inveon Multimodality PET/CT (Siemens, Medical Solutions, Knoxville, TN, USA). Dynamic PET images were acquired for 60 min, followed by CT with a contrast agent (eXIATM160XL, Binitio Biomedical Inc., Ottawa, ON, Canada). The PET images were reconstructed with OSEM3D (frames 5 × 60 s, 3 × 300 s, 1 × 600 s, […]).
Quantitative PET image analysis was performed by defining ROIs in the heart left ventricle (blood pool) and aortic arch as identified on the basis of the CT angiography by using the Inveon Research Workplace software (Siemens Medical Solutions, Knoxville, TN, USA). Time frames 10–20 min after injection were used for PET quantification, as previously reported in the same mouse model using ^68Ga-DOTA-Siglec-9 [4]. The results within ROIs were expressed as SUV and target-to-background ratio (SUVmax,aortic arch/SUVmean,blood).

[3] = extrapolated from the rat PET data, OLINDA/EXM, 70 kg male
[4] = source organ, extrapolated from the rat PET data to 70 kg male

Normalized number of disintegrations, Total body ([1]; extrapolated from the rat PET data to 70 kg male): 1.8 ± 0.32 h | Human dose equivalent estimate, Adrenals [1, 3]: 0.020 ± 0.0029 mSv/MBq | Human dose equivalent estimate, Brain [1, 3]: 0.010 ± 0.0018 mSv/MBq | Human dose equivalent estimate, Breasts [1, 3]: 0.0086 ± 0.0011 mSv/MBq | Human dose equivalent estimate, Gallbladder wall [1, 3]: 0.017 ± 0.0014 mSv/MBq | Human dose equivalent estimate, Heart wall [1, 3]: 0.0085 ± 0.00045 mSv/MBq | Human dose equivalent estimate, Kidneys [1, 3]: 0.29 ± 0.13 mSv/MBq | Human dose equivalent estimate, Liver [1, 3]: 0.021 ± 0.0061 mSv/MBq | Human dose equivalent estimate, Lower large intestine wall [1, 3]: 0.014 ± 0.00091 mSv/MBq | Human dose equivalent estimate, Lungs [1, 3]: 0.0062 ± 0.00016 mSv/MBq | Human dose equivalent estimate, Muscle [1, 3]: 0.0074 ± 0.00025 mSv/MBq | Human dose equivalent estimate, Osteogenic cells [1, 3]: 0.016 ± 0.0019 mSv/MBq | Human dose equivalent estimate, Ovaries [1, 3]: 0.014 ± 0.00083 mSv/MBq | Human dose equivalent estimate, Pancreas [1, 3]: 0.018 ± 0.0015 mSv/MBq | Human dose equivalent estimate, Red marrow [1, 3]: 0.012 ± 0.00032 mSv/MBq | Human dose equivalent estimate, Skin [1, 3]: 0.0080 ± 0.0008 mSv/MBq | Human dose equivalent estimate, Small intestine [1, 3]: 0.015 ± 0.00049 mSv/MBq | Human dose equivalent estimate, Spleen [1, 3]: 0.018 ± 0.0022 mSv/MBq | Human dose equivalent estimate, Stomach wall [1, 3]: 0.014 ± 0.00041 mSv/MBq | Human dose equivalent estimate, Testes [1, 3]: 0.010 ± 0.0010 mSv/MBq | Human dose equivalent estimate, Thymus [1, 3]: 0.010 ± 0.0013 mSv/MBq | Human dose equivalent estimate, Thyroid [1, 3]: 0.0094 ± 0.0014 mSv/MBq | Human dose equivalent estimate, Total body [1, 3]: 0.012 ± 0.00012 mSv/MBq | Human dose equivalent estimate, Upper large intestine wall [1, 3]: 0.015 ± 0.00045 mSv/MBq | Human dose equivalent estimate, Urinary bladder wall [1, 3]: 0.081 ± 0.032 mSv/MBq | Human dose equivalent estimate, Uterus [1, 3]: 0.017 ± 0.0012 mSv/MBq | Human effective dose estimate ([1]; extrapolated from the rat PET data, OLINDA/EXM, 70 kg man): 0.022 ± 0.0042 mSv/MBq | Normalized number of disintegrations, Heart wall [1, 4]: 0.0026 ± 0.0010 h | Normalized number of disintegrations, Kidneys [1, 4]: 0.47 ± 0.21 h | Normalized number of disintegrations, Liver [1, 4]: 0.11 ± 0.043 h | Normalized number of disintegrations, Lungs [1, 4]: 0.0029 ± 0.0011 h | Normalized number of disintegrations, Muscle [1, 4]: 0.081 ± 0.042 h | Normalized number of disintegrations, Urinary bladder wall [1, 4]: 0.15 ± 0.070 h
SMILES: CC(C)C[C@@H]1NC(=O)CNC(=O)[C@H](CCCNC(=N)N)NC(=O)[C@H](Cc2c[nH]c3ccccc23)NC(=O)[C@H](CO)NC(=O)[C@H](CC(C)C)NC(=O)[C@H](CO)NC(=O)[C@H](CC(C)C)NC(=O)[C@H](CCCNC(=N)N)NC(=O)[C@H](C)NC(=O)[C@@H](NC(=O)COCCOCCNC(=O)CON=C[C@H](O)[C@H](O)[C@H](O)CF)CSSC[C@@H](C(=O)N2CCC[C@H]2C(=O)N[C@@H](CO)C(=O)N[C@@H](CCCCN)C(=O)O)NC(=O)[C@H](CC(C)C)NC(=O)[C@H]([C@@H](C)O)NC1=O [^18F-FDR-Siglec-9] ({X1-AEEA}-CARLSLSWRGLTLCPSK-OH; disulfide 1-14; N-terminus and C-terminus assumed)
target-to-background ratio (SUVmax,aortic arch/SUVmean,blood) [2]: 1.6 ± 0.078
